16 molecules from US11130769B2 (Prelude Therapeutics Incorporated, priority 2018, dated 2021) can be followed below.

For experiment [1], the system named is H929 cells. Kind of experiment: Cell viability assay (H929 10 FBS). In kind it is cell-based. The following applies: Homo sapiens, NCI-H929, 24 hours, read-out: H929_10FBS IC50. Put shortly: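 H929 cells, 4000/well, in RPMI 1640 with 10% FBS, sodium pyruvate, HEPES and glucose were exposed to compound 24 h at 37 °C. Viability read as luminescence after 30-60 min at RT with CellTiter-Glo or ATPlite 1 Step.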

Experiment [2] addresses MCL-1 (Homo sapiens (Human), UniProt Q07820). Kind of experiment: Cell free Mcl-1:Bim affinity assay (fluorescence polarization competition). In kind it is binding. The following applies: 15 nM MCL-1, 5 nM FITC-Bim, 1 hour at room temperature, read-out: BIM_Ki. Put shortly: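 Compounds competed with FITC-labelled Bim peptide (5 nM) for MCL-1 (15 nM) in HEPES/NaCl buffer with 1% DMSO, 1 h at room temperature. Fluorescence polarization (535 nm emission) gave % inhibition versus DMSO and positive controls; IC50 from 10-point curves, converted to Ki by the Nikolovska-Coleska equation.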

Where two headings read alike, the source gives them in different places.

For orientation: IC50 means the midpoint of a concentration-inhibition curve.

Chain of MCL-1 (Q07820 whole entry): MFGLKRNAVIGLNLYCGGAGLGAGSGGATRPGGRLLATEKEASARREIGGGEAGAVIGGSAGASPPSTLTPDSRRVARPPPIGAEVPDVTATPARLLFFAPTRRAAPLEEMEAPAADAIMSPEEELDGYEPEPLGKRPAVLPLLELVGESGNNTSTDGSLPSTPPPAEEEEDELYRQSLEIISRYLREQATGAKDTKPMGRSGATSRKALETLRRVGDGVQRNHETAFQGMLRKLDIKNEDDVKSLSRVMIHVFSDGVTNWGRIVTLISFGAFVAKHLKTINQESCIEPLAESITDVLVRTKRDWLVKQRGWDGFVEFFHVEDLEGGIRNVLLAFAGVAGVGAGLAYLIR

Take `CN(C)C(=O)OC1CCCOC(C)(C)C(=O)NS(=O)(=O)c2ccc3c(c2)N(C[C@@H]2CC[C@@H]12)C[C@@]1(CCCc2cc(Cl)ccc21)CO3` (stereo partly drawn) [Example 286, [(3R,6R,22S)-6′-Chloro-12,12-dimethyl-13,15,15-trioxo-spiro[11,20-dioxa-15-thia-1,14-diazatetracyclo[14.7.2.03,6.019,24]pentacosa-16,18,24-triene-22,1′-tetralin]-7-yl] N,N-dimethylcarbamate]: the IC50 in experiment [1] is greater than 1000 nM. For the same molecule, in experiment [2] (class symbols), the Ki is 1 to 100 nM.

For the molecule `CO[C@@H]1/C=C/C[C@H](C)[C@@H](CC(=O)N2CCOCC2)C(=O)NS(=O)(=O)c2ccc3c(c2)N(C[C@@H]2CC[C@H]21)C[C@@]1(CCCc2cc(Cl)ccc21)CO3` [Example 92, (3R,6R,7R,8E,11S,12R,22S)-6′-Chloro-7-methoxy-11-methyl-12-(2-morpholino-2-oxo-ethyl)-15,15-dioxo-spiro[20-oxa-15-thia-1,14-diazatetracyclo[14.7.2.03,6.019,24]pentacosa-8,16,18,24-tetraene-22,1′-tetralin]-13-one], the IC50 in experiment [1] is less than 1000 nM. Also, the Ki in experiment [2] (class symbols) is less than 1 nM.

As for `COC(=O)N1C/C=C/[C@@H](OC)[C@@H]2CC[C@H]2CN2C[C@@]3(CCCc4cc(Cl)ccc43)COc3ccc(cc32)S(=O)(=O)NC(=O)[C@H]1C` [Example 134, Methyl (3R,6R,7R,8E,12R,22S)-6′-Chloro-7-methoxy-12-methyl-13,15,15-trioxo-spiro[20-oxa-15-thia-1,11,14-triazatetracyclo[14.7.2.03,6.019,24]pentacosa-8,16,18,24-tetraene-22,1′-tetralin]-11-carboxylate], the IC50 in experiment [1] is greater than 1000 nM. Besides, the Ki in experiment [2] (class symbols) is 1 to 100 nM.

As for `CN(C)C(=O)O[C@@H]1/C=C/CNC(C)(C)C(=O)NS(=O)(=O)c2ccc3c(c2)N(C[C@@H]2CC[C@H]21)C[C@@]1(CCCc2cc(Cl)ccc21)CO3` [Example 198, [(3R,6R,7R,8E,22S)-6′-Chloro-12,12-dimethyl-13,15,15-trioxo-spiro[20-oxa-15-thia-1,11,14-triazatetracyclo[14.7.2.0˜3,6.0˜19,24]pentacosa-8,16,18,24-tetraene-22,1′-tetralin]-7-yl] N,N-dimethylcarbamate], the IC50 in experiment [1] was less than 500 nM. Besides, in experiment [2] (class symbols), the Ki is less than 1 nM.

`CC1(C)OC/C=C/[C@H](OCCN2CCC2)[C@@H]2CC[C@H]2CN2C[C@@]3(CCCc4cc(Cl)ccc43)COc3ccc(cc32)S(=O)(=O)NC1=O` [Example 262, (3R,6R,7S,8E,22S)-7-[2-(Azetidin-1-yl)ethoxy]-6′-chloro-12,12-dimethyl-15,15-dioxo-spiro[11,20-dioxa-15-thia-1,14-diazatetracyclo[14.7.2.03,6.019,24]pentacosa-8,16,18,24-tetraene-22,1′-tetralin]-13-one]: the IC50 in experiment [1] is less than 500 nM. Moreover, the Ki in experiment [2] (class symbols) was less than 1 nM.

As to `CO[C@@H]1/C=C/CN(S(C)(=O)=O)[C@H](C)C(=O)NS(=O)(=O)c2ccc3c(c2)N(C[C@@H]2CC[C@H]21)C[C@@]1(CCCc2cc(Cl)ccc21)CO3` [Example 135, (3R,6R,7R,8E,12R,22S)-6′-Chloro-7-methoxy-12-methyl-11-methylsulfonyl-15,15-dioxo-spiro[20-oxa-15-thia-1,11,14-triazatetracyclo[14.7.2.03,6.019,24]pentacosa-8,16,18,24-tetraene-22,1′-tetralin]-13-one], the IC50 in experiment [1] is greater than 1000 nM. Further, the Ki in experiment [2] (class symbols) fell in the range of 1 to 100 nM.

`COCCOC[C@H]1C(=O)NS(=O)(=O)c2ccc3c(c2)N(C[C@@H]2CC[C@H]2[C@H](OC)/C=C/C[C@@H]1C)C[C@@]1(CCCc2cc(Cl)ccc21)CO3` [Example 93, (3R,6R,7R,8E,11S,12S,22S)-6′-chloro-7-methoxy-12-(2-methoxyethoxymethyl)-11-methyl-15,15-dioxo-spiro[20-oxa-15-thia-1,14-diazatetracyclo[14.7.2.03,6.019,24]pentacosa-8,16,18,24-tetraene-22,1′-tetralin]-13-one]: the IC50 in experiment [1] is greater than 1000 nM. Besides, the Ki in experiment [2] (class symbols) was 1 to 100 nM.

As to `CN(C)C(=O)O[C@H]1/C=C/COC(C)(C)C(=O)NS(=O)(=O)c2ccc3c(c2)N(C[C@@H]2CC[C@H]21)C[C@@]1(CCOc2cc(Cl)ccc21)CO3` [Example 247, [(3R,6R,7S,8E,22S)-7′-Chloro-12,12-dimethyl-135,5-trioxo-spiro[11,20-dioxa-15-thia-1,14-diazatetracyclo[14.7.2.03,6.019,24]pentacosa-8,16,18,24-tetraene-22,4′-chromane]-7-yl] N,N-dimethylcarbamate], the IC50 in experiment [1] was less than 500 nM. Further, the Ki in experiment [2] (class symbols) is less than 1 nM.

Regarding `CC1(C)OC/C=C/[C@H](OC(=O)NC2CCOCC2)[C@@H]2CC[C@H]2CN2C[C@@]3(CCOc4cc(Cl)ccc43)COc3ccc(cc32)S(=O)(=O)NC1=O` [Example 305, [(3R,6R,7S,8E,22S)-7′-Chloro-12,12-dimethyl-13,15,15-trioxo-spiro[11,20-dioxa-15-thia-1,14-diazatetracyclo[14.7.2.03,6.019,24]pentacosa-8,16,18,24-tetraene-22,4′-chromane]-7-yl] N-tetrahydropyran-4-yl-carbamate], in experiment [1], the IC50 was less than 500 nM. In addition, the Ki in experiment [2] (class symbols) was less than 1 nM.

In the case of `CN(C)CCN(C)C(=O)O[C@H]1/C=C/COC2(CCC2)C(=O)NS(=O)(=O)c2ccc3c(c2)N(C[C@@H]2CC[C@H]21)C[C@@]1(CCCc2cc(Cl)ccc21)CO3` [Example 233, [(3R,6R,7S,8E,22S)-6′-Chloro-12,12-(1,3-propylene)-13,15,15-trioxo-spiro[11,20-dioxa-15-thia-1,14-diazatetracyclo[14.7.2.03,6.019,24]pentacosa-8,16(25),17,19(24)-tetraene-22,1′-tetralin]-7-yl] N-[2-(dimethylamino)ethyl]-N-methyl-carbamate], the IC50 in experiment [1] is less than 500 nM. Besides, the Ki in experiment [2] (class symbols) was less than 1 nM.

In the case of `CC1(C)OC/C=C/[C@H](OC(=O)N2CCC(O)CC2)[C@@H]2CC[C@H]2CN2C[C@@]3(CCCc4cc(Cl)ccc43)COc3ccc(cc32)S(=O)(=O)NC1=O` [Example 190, [(3R,6R,7S,8E,22S)-6′-Chloro-12,12-dimethyl-13,15,15-trioxo-spiro[11,20-dioxa-15-thia-1,14-diazatetracyclo[14.7.2.03,6.019,24]pentacosa-8,16,18,24-tetraene-22,1′-tetralin]-7-yl] 4-hydroxypiperidine-1-carboxylate], in experiment [1], the IC50 is less than 500 nM. Moreover, the Ki in experiment [2] (class symbols) is less than 1 nM.

As to `CO[C@@H]1CCN(C(=O)O[C@H]2/C=C/CN(C)C(C)(C)C(=O)NS(=O)(=O)c3ccc4c(c3)N(C[C@@H]3CC[C@H]32)C[C@@]2(CCCc3cc(Cl)ccc32)CO4)C1` [Example 215, [(3R,6R,7S,8E,22S)-6′-Chloro-11,12,12-trimethyl-13,15,15-trioxo-spiro[20-oxa-15-thia-1,11,14-triazatetracyclo[14.7.2.03,6.019,24]pentacosa-8,16,18,24-tetraene-22,1′-tetralin]-7-yl] (3R)-3-methoxypyrrolidine-1-carboxylate], the IC50 in experiment [1] was less than 500 nM. The Ki in experiment [2] (class symbols) was less than 1 nM.

Turning to `CN[C@H]1CCN(C(=O)O[C@H]2/C=C/COC(C)(C)C(=O)NS(=O)(=O)c3ccc4c(c3)N(C[C@@H]3CC[C@H]32)C[C@@]2(CCCc3cc(Cl)ccc32)CO4)C1` [Example 163, [(3R,6R,7S,8E,22S)-6′-Chloro-12,12-dimethyl-13,15,15-trioxo-spiro[11,20-dioxa-15-thia-1,14-diazatetracyclo[14.7.2.03,6.019,24]pentacosa-8,16,18,24-tetraene-22,1′-tetralin]-7-yl] (3S)-3-(methylamino)pyrrolidine-1-carboxylate], in experiment [1], the IC50 was less than 500 nM. Besides, the Ki in experiment [2] (class symbols) is less than 1 nM.

As to `CN1C/C=C/[C@H](OC(=O)N[C@H]2CCOC2)[C@@H]2CC[C@H]2CN2C[C@@]3(CCCc4cc(Cl)ccc43)COc3ccc(cc32)S(=O)(=O)NC(=O)C1(C)C` [Example 212, [(3R,6R,7S,8E,22S)-6′-Chloro-11,12,12-trimethyl-13,15,15-trioxo-spiro[20-oxa-15-thia-1,11,14-triazatetracyclo[14.7.2.03,6.019,24]pentacosa-8,16,18,24-tetraene-22,1′-tetralin]-7-yl] N-[(3S)-tetrahydrofuran-3-yl]carbamate], the IC50 in experiment [1] is less than 500 nM. In experiment [2] (class symbols), the Ki was less than 1 nM.

For `CC(C)(C)OC(=O)N1CCC(CC(=O)NS(=O)(=O)c2ccc3c(c2)N(CC2CCC2)CC2(CCCc4cc(Cl)ccc42)CO3)CC1` (centres unmarked) [Example 22, tert-Butyl 4-[2-[[6′-chloro-5-(cyclobutylmethyl)spiro[2,4-dihydro-1,5-benzoxazepine-3,1′-tetralin]-7-yl]sulfonylamino]-2-oxo-ethyl]piperidine-1-carboxylate], in experiment [1], the IC50 was greater than 1000 nM. In experiment [2] (numeric values), the Ki came out at 57 nM.

With `CN(C)C1CN(C(=O)O[C@H]2/C=C/CN(C)C(C)(C)C(=O)NS(=O)(=O)c3ccc4c(c3)N(C[C@@H]3CC[C@H]32)C[C@@]2(CCCc3cc(Cl)ccc32)CO4)C1` [Example 214, [(3R,6R,7S,8E,22S)-6′-Chloro-11,12,12-trimethyl-13,15,15-trioxo-spiro[20-oxa-15-thia-1,11,14-triazatetracyclo[14.7.2.03,6.019,24]pentacosa-8,16,18,24-tetraene-22,1′-tetralin]-7-yl] 3-(dimethylamino)azetidine-1-carboxylate], the IC50 in experiment [1] was less than 500 nM. For the same molecule, the Ki in experiment [2] (class symbols) was less than 1 nM.
